Test results as given in article PMC6792352, “Limited Chemical Structural Diversity Found to Modulate Thyroid Hormone Receptor in the Tox21 Chemical Library” (Environmental Health Perspectives, 2019).
Structures can show the parent of a compound that is named as a salt. Positions of bridges follow the written chain, without caps; N, C: chain ends. Non-standard residues stand in square brackets, D forms with d. Residues, ends and D or L forms follow the SMILES beside them. hArg = N=C(N)NCCCC[C@H](N)C(=O)O; Mpa = O=C(O)CCS

Assay: in vitro
Conditions: rat, gh3-tre-luc cells, AC50 (uM) modified / 1000

Compound	CC50 at 24 h [µM]
C[C@]12CC[C@@H]3c4ccc(OS(=O)(=O)O)cc4CC[C@H]3[C@@H]1CCC2=O [Estropipate]	> 50
CC(C)(C)c1ccc(C=O)cc1 [4-tert-Butylbenzaldehyde]	> 90
CNC(=O)C[C@@H](N)C(=O)N[C@@H](C(=O)N[C@@H]1C(=O)N2[C@@H]1SC(C)(C)[C@@H]2C(=O)O)c1ccc(O)cc1 [Aspoxicillin]	> 50
CC(=O)Nc1ccc(OC(=O)c2ccccc2O)cc1 [Acetaminosalol]	> 50
COCC(=O)Nc1c(I)c(C(=O)NCC(O)CO)c(I)c(C(=O)N(C)CC(O)CO)c1I (mixture of isomers) [Iopromide]	> 20
O=[N+]([O-])c1ccccc1CCO [2-(2-Nitrophenyl)ethanol]	> 90
OCc1ccccn1 [Piconol]	> 50
CCCCCCCCC1CCC(=O)O1 (centres unmarked) [gamma-Dodecalactone]	> 90
CCOC(=S)SSC(=S)OCC [Bis(ethylxanthogen)]	> 90
COc1ccc(Cl)cc1C [4-Chloro-2-methylanisole]	> 100
C=C1[C@H](CO)[C@@H](O)C[C@@H]1n1cnc2c(=O)[nH]c(N)nc21 [Entecavir]	> 50
CCCC(CCC)C(=O)OC1C[C@H]2CC[C@@H](C1)[N+]2(C)C (some centres unmarked) [Anisotropine methylbromide]	> 50
OCc1ccccc1O [Salicyl alcohol]	> 50
Nc1cccc2c(=O)[nH][nH]c(=O)c12 [Luminol]	> 90
CCN(CC)CCCC(C)Nc1c2ccc(Cl)cc2nc2ccc(OC)cc12 (centres unmarked) [Quinacrine dihydrochloride dihydrate]	> 50
CC(=O)NNC(C)=O [Diacetyl hydrazine]	> 90
BrCC(Br)C1CCC(Br)C(Br)C1 (centres unmarked) [1,2-Dibromo-4-(1,2-dibromoethyl)cyclohexane]	55.8
CN(C)CCc1ccc(O)cc1 [Hordenine]	> 50
O=C1c2c(O)ccc([N+](=O)[O-])c2C(=O)c2c([N+](=O)[O-])ccc(O)c21 [1,8-Dihydroxy-4,5-dinitroanthraquinone]	8.27
COC1=CC(=O)O[C@@H](/C=C/c2ccc3c(c2)OCO3)C1 [Methysticin]	> 90
N#CC(C#N)=Cc1cc(O)c(O)c(O)c1 [Tyrphostin 25]	28.5
NCCCNCCSP(=O)(O)O [Amifostine]	> 50
S=C1SCN(Cc2ccccc2)CN1Cc1ccccc1 [Sulbentine]	23.1
CC(C)c1cccc(C(C)C)c1O [Propofol]	> 90
N=C(N)NCCCC[C@@H]1NC(=O)CCSSC[C@@H](C(N)=O)NC(=O)[C@@H]2CCCN2C(=O)[C@H](Cc2c[nH]c3ccccc23)NC(=O)[C@H](CC(=O)O)NC(=O)CNC1=O [Eptifibatide] ([Mpa][hArg]GDWPC-NH2; disulfide 1-7)	> 50

Compound	CC50 at 24 h [µM]
CCCCC/C=C\CCC=O [(4Z)-4-Decenal]	> 90
CC1CCC(C(C)(C)S)C(=O)C1 (centres unmarked) [p-Mentha-8-thiol-3-one]	> 90
[O-][N+](=Nc1ccccc1)c1ccccc1 [Azoxybenzene]	> 90
CNC(=O)Oc1cccc(C(C)C)c1 [m-Cumenyl methylcarbamate]	> 90
C#CC(O)CCCCC (centres unmarked) [1-Octyn-3-ol]	> 90
CNC(=NCCSCc1csc(N=C(N)N)n1)NC#N [Tiotidine]	> 50
O=C(O)COc1ccc(Cl)cc1Cl [2,4-D, Dimethylamine salt]	> 90
c1ccc(CCCc2ccncc2)cc1 [4-(3-Phenylpropyl)pyridine]	> 90
C=C(CC(=O)O)C(=O)O [Methylenebutanedioic acid]	> 90
CCN(CC)C1CCCCC1 [N,N-Diethylcyclohexylamine]	> 90
CCC(C)n1ncn(-c2ccc(N3CCN(c4ccc(OC[C@H]5CO[C@](Cn6cncn6)(c6ccc(Cl)cc6Cl)O5)cc4)CC3)cc2)c1=O (mixture of isomers) [Itraconazole]	3.2
CCOC(=O)C(C)O (centres unmarked) [Ethyl lactate]	> 90
CC1=C2[C@H](/C=C(\C)C(=O)O)CC[C@@H](C)[C@H]2CC1 [Valerenic acid]	> 100
OCCN1CCN(CCO)CC1 [1,4-Piperazinediethanol]	> 90
[O-][S+](c1cc(Cl)cc(Cl)c1O)c1cc(Cl)cc(Cl)c1O [Bithionoloxide]	46
CC(=O)O[C@H]1C[C@H](O[C@H]2[C@@H](O)C[C@H](O[C@H]3[C@@H](O)C[C@H](O[C@H]4CC[C@@]5(C)[C@H](CC[C@@H]6[C@@H]5CC[C@]5(C)[C@@H](C7=CC(=O)OC7)CC[C@]65O)C4)O[C@@H]3C)O[C@@H]2C)O[C@H](C)[C@H]1O[C@@H]1O[C@H](CO)[C@@H](O)[C@H](O)[C@H]1O [Lanatoside A]	> 50
CCOC(=O)OC1=C(c2cc(C)ccc2C)C(=O)N[C@]12CC[C@@H](OC)CC2 [Spirotetramat]	> 90
C#CCN1C(=O)COc2cc(F)c(N3C(=O)C4=C(CCCC4)C3=O)cc21 [Flumioxazin]	> 90
CCN[C@H]1CN(CCCOC)S(=O)(=O)c2sc(S(N)(=O)=O)cc21 [Brinzolamide]	> 20
Cc1c(NC(=O)c2cccnc2)c(=O)n(-c2ccccc2)n1C [Nifenazone]	> 20
Nc1ccc(N=Nc2ccc(N)cc2)cc1 [4,4'-Diaminoazobenzene]	32.1
CCCCN(CCCC)c1ccc(C(=O)c2ccccc2C(=O)O)c(O)c1 [2-[4-(Dibutylamino)-2-hydroxybenzoyl]benzoic acid]	46.7
N[C@H](C(=O)O)[C@@H]1CC(Cl)=NO1 [Acivicin]	3.86
CCOC(=O)CS [Acetic acid,mercapto-,ethylester]	> 90
COc1cc2c(cc1OC)[C@@H](Cc1cc(OC)c(OC)c(OC)c1)[N+](C)(CCCOC(=O)CC/C=C/CCC(=O)OCCC[N+]1(C)CCc3cc(OC)c(OC)cc3[C@H]1Cc1cc(OC)c(OC)c(OC)c1)CC2 (some centres unmarked) [Mivacurium chloride]	> 50

Compound	CC50 at 24 h [µM]
CCOC(=O)Nc1ccc2c(c1)N(C(=O)CN(C)C)c1ccccc1CC2 [Tiracizine]	41.3
Cc1ccccc1C(N)=O [2-Methylbenzamide]	> 90
N[C@@H](CSCCCO)C(=O)O [Fudosteine]	> 50
CCOCCOCCO [2-(2-Ethoxyethoxy)ethanol]	> 90
CO[C@@]1(NC(=O)CSCC#N)C(=O)N2C(C(=O)O)=C(CSc3nnnn3C)CS[C@@H]21 [Cefmetazole sodium]	> 50
O=C(OCc1ccccc1)c1ccc(O)cc1 [Benzylparaben]	> 90
C[C@]12O[C@H](C[C@]1(O)CO)n1c3ccccc3c3c4c(c5c6ccccc6n2c5c31)CNC4=O [Lestaurtinib]	0.226
COc1cccc(OC)c1C(=O)N[C@@H]1C(=O)N2[C@@H]1SC(C)(C)[C@@H]2C(=O)O [Methicillin sodium hydrate]	> 50
CC1(C)O[C@@H]2C[C@H]3[C@@H]4CCC5=CC(=O)CC[C@]5(C)[C@@]4(F)[C@@H](O)C[C@]3(C)[C@]2(C(=O)CCl)O1 [Halcinonide]	> 20
Cc1cc(=O)[nH]c(=S)[nH]1 [6-Methyl-2-thiouracil]	> 90
OC[C@H]1O[C@H](O[C@H]2O[C@H](CO)[C@@H](O)[C@H](O)[C@H]2O)[C@H](O)[C@@H](O)[C@@H]1O [Trehalose dihydrate]	> 90
O=C(O)c1ccccc1O [Sodium salicylate]	> 90
CCCCCCCCCCCCCC=O [Tetradecanal]	> 5
O=C(CCCN1CCC(n2c(O)nc3ccccc32)CC1)c1ccc(F)cc1 [Benperidol]	> 20
O=S(O)CNc1ccc(S(=O)(=O)c2ccc(NCS(=O)O)cc2)cc1 [Adesulfone sodium]	> 50
Nc1ncnc2c1ncn2[C@@H]1O[C@H](COP(=O)(O)OP(=O)(O)OP(=O)(O)O)[C@@H](O)[C@H]1O [Adenosine triphosphate]	> 50
CC(C)(C)c1ccc2c(S(=O)(=O)O)c(C(C)(C)C)ccc2c1 [Sodium dibunate]	> 50
O=[N+]([O-])c1ccc2c(c1)Cc1ccccc1-2 [2-Nitrofluorene]	> 90
Oc1ccc(C(=C(Cl)Cl)c2ccc(O)cc2)cc1 [Bis(4-hydroxyphenyl)-2,2-dichloroethylene]	> 90
C#CCN(C)[C@H](C)Cc1ccccc1 [Selegiline hydrochloride]	> 50
CO/N=C(\C(=O)N[C@@H]1C(=O)N2C(C(=O)O)=C(CSC(=O)c3ccco3)CS[C@H]12)c1csc(N)n1 [Ceftiofur]	> 50
N#CC1(O)CCCCC1 [Cyclohexanone cyanohydrin]	> 90
CN1CCCN(C(c2ccccc2)c2ccc(Cl)cc2)CC1 (centres unmarked) [Homochlorcyclizine]	7.44
CCC(C)(C)C(=O)O [2,2-Dimethylbutanoic acid]	> 90

Same assay, conditions: rat, gh3-tre-luc cells, AC50 (uM) modified / 1000, Tox21_110001=Tox21_112862; viability, 1 nM T3 present, 24 h

Compound	CC50 at 24 h [µM]
Oc1ccc2c3c1O[C@H]1[C@@H](O)C=C[C@H]4[C@@H](C2)NCC[C@@]341 [N-Normorphine hydrochloride]	> 100

Same assay, conditions: rat, gh3-tre-luc cells, AC50 (uM) modified / 1000, Tox21_110001=Tox21_112871; viability, 1 nM T3 present, 24 h

Compound	CC50 at 24 h [µM]
O=C(O)CCCO [Sodium 4-hydroxybutanoate]	> 100

Same assay, conditions: rat, gh3-tre-luc cells, AC50 (uM) modified / 1000, Tox21_110001=Tox21_300702; viability, 1 nM T3 present, 24 h

Compound	CC50 at 24 h [µM]
CCNc1nc(NCC)nc(SC)n1 [Simetryn]	> 90

Same assay, conditions: rat, gh3-tre-luc cells, AC50 (uM) modified / 1000, Tox21_110001=Tox21_301424; viability, 1 nM T3 present, 24 h

Compound	CC50 at 24 h [µM]
CNC(=O)Oc1cc(C)cc(C(C)C)c1 [Promecarb]	> 90

Same assay, conditions: rat, gh3-tre-luc cells, AC50 (uM) modified / 1000, Tox21_110001=Tox21_301903; viability, 1 nM T3 present, 24 h

Compound	CC50 at 24 h [µM]
COP(=S)(Oc1cc(Cl)c(Br)cc1Cl)c1ccccc1 (centres unmarked) [Leptophos]	72.3

Same assay, conditions: rat, gh3-tre-luc cells, AC50 (uM) modified / 1000, Tox21_110001=Tox21_302262; viability, 1 nM T3 present, 24 h

Compound	CC50 at 24 h [µM]
CNP(=O)(OC)Oc1ccc(C(C)(C)C)cc1Cl (centres unmarked) [Crufomate]	> 90
